Measurements taken from ChEMBL document CHEMBL1154822, “Synthesis and antiproliferative activity of 7-azaindirubin-3'-oxime, a 7-aza isostere of the natural indirubin pharmacophore” (J Nat Prod, 2009).

Legend:
Type in all cases: functional
OVCAR-3 = assay: Cytotoxicity against human OVCAR-3 cells assessed as cell growth at 1 uM after 1 to 11 days by MTT assay; conditions: read-out: Activity
A498 [1] = assay: Cytotoxicity against human A498 cells assessed as cell growth at 1 uM after 1 to 11 days by MTT assay; conditions: read-out: Activity
NCI/ADR-RES = assay: Cytotoxicity against human NCI/ADR-RES cells assessed as cell growth at 1 uM after 1 to 11 days by MTT assay; conditions: read-out: Activity
UACC-62 = assay: Cytotoxicity against human UACC62 cells assessed as cell growth at 10 uM after 1 to 11 days by MTT assay; conditions: read-out: Activity
OVCAR-8 = assay: Cytotoxicity against human OVCAR8 cells assessed as cell growth at 10 uM after 1 to 11 days by MTT assay; conditions: read-out: Activity
HL-60(TB) = assay: Cytotoxicity against human HL-60(TB) cells assessed as cell growth at 10 uM after 1 to 11 days by MTT assay; conditions: read-out: Activity
K562 [2] = assay: Cytotoxicity against human K562 cells assessed as cell growth at 10 uM after 1 to 11 days by MTT assay; conditions: read-out: Activity
NCI-H226 [3] = assay: Cytotoxicity against human NCI-H226 cells assessed as cell growth at 10 uM after 1 to 11 days by MTT assay; conditions: read-out: Activity
HCC 2998 [4] = assay: Cytotoxicity against human HCC2998 cells assessed as cell growth at 10 uM after 1 to 11 days by MTT assay; conditions: read-out: Activity
KM12 = assay: Cytotoxicity against human KM12 cells assessed as cell growth at 10 uM after 1 to 11 days by MTT assay; conditions: read-out: Activity
LOX IMVI = assay: Cytotoxicity against human LOXIMVI cells assessed as cell growth at 100 uM after 1 to 11 days by MTT assay; conditions: read-out: Activity
UO-31 = assay: Cytotoxicity against human UO31 cells assessed as cell growth at 10 uM after 1 to 11 days by MTT assay; conditions: read-out: Activity
[5] = Cytotoxicity against human Hs 578T cells assessed as cell growth at 10 uM after 1 to 11 days by MTT assay; conditions: read-out: Activity
T47D [6] = assay: Cytotoxicity against human T47D cells assessed as cell growth at 10 uM after 1 to 11 days by MTT assay; conditions: read-out: Activity
K562 [7] = assay: Cytotoxicity against human K562 cells assessed as cell growth at 100 uM after 1 to 11 days by MTT assay; conditions: read-out: Activity
RPMI-8226 [8] = assay: Cytotoxicity against human RPMI8226 cells assessed as cell growth at 100 uM after 1 to 11 days by MTT assay; conditions: read-out: Activity
NCI-H226 [9] = assay: Cytotoxicity against human NCI-H226 cells assessed as cell growth at 100 uM after 1 to 11 days by MTT assay; conditions: read-out: Activity
HCT-116 = assay: Cytotoxicity against human HCT116 cells assessed as cell growth at 100 uM after 1 to 11 days by MTT assay; conditions: read-out: Activity
SF-539 = assay: Cytotoxicity against human SF539 cells assessed as cell growth at 100 uM after 1 to 11 days by MTT assay; conditions: read-out: Activity
SNB-75 [10] = assay: Cytotoxicity against human SNB75 cells assessed as cell growth at 100 uM after 1 to 11 days by MTT assay; conditions: read-out: Activity
IGROV-1 = assay: Cytotoxicity against human IGROV1 cells assessed as cell growth at 100 uM after 1 to 11 days by MTT assay; conditions: read-out: Activity
PC-3 = assay: Cytotoxicity against human PC3 cells assessed as cell growth at 100 uM after 1 to 11 days by MTT assay; conditions: read-out: Activity
[11] = Cytotoxicity against human Hs 578T cells assessed as cell growth at 100 uM after 1 to 11 days by MTT assay; conditions: read-out: Activity
MDA-MB-468 = assay: Cytotoxicity against human MDA-MB-468 cells assessed as cell growth at 100 uM after 1 to 11 days by MTT assay; conditions: read-out: Activity
HCC 2998 [12] = assay: Cytotoxicity against human HCC2998 cells assessed as cell growth at 1 mM after 1 to 11 days by MTT assay; conditions: read-out: Activity
HCT-15 = assay: Cytotoxicity against human HCT15 cells assessed as cell growth at 1 mM after 1 to 11 days by MTT assay; conditions: read-out: Activity
SNB-75 [13] = assay: Cytotoxicity against human SNB75 cells after 1 to 11 days by MTT assay
M14 = assay: Cytotoxicity against human M14 cells after 1 to 11 days by MTT assay
[14] = Cytotoxicity against human Hs 578T cells assessed as cell growth at 1 mM after 1 to 11 days by MTT assay; conditions: read-out: Activity
BT-549 [15] = assay: Cytotoxicity against human BT549 cells assessed as cell growth at 1 mM after 1 to 11 days by MTT assay; conditions: read-out: Activity
T47D [16] = assay: Cytotoxicity against human T47D cells assessed as cell growth at 1 mM after 1 to 11 days by MTT assay; conditions: read-out: Activity
A498 [17] = assay: Cytotoxicity against human A498 cells after 1 to 11 days by MTT assay
ACHN [18] = assay: Cytotoxicity against human ACHN cells after 1 to 11 days by MTT assay
SN12C = assay: Cytotoxicity against human SN12C cells after 1 to 11 days by MTT assay
SR = assay: Cytotoxicity against human SR cells assessed as cell growth at 0.1 uM after 1 to 11 days by MTT assay; conditions: read-out: Activity
SNB-75 [19] = assay: Cytotoxicity against human SNB75 cells assessed as cell growth at 0.1 uM after 1 to 11 days by MTT assay; conditions: read-out: Activity
SK-MEL-5 = assay: Cytotoxicity against human SK-MEL-5 cells assessed as cell growth at 0.1 uM after 1 to 11 days by MTT assay; conditions: read-out: Activity
HOP-92 = assay: Cytotoxicity against human HOP92 cells assessed as cell growth at 0.1 uM after 1 to 11 days by MTT assay; conditions: read-out: Activity
OVCAR-5 = assay: Cytotoxicity against human OVCAR5 cells assessed as cell growth at 0.1 uM after 1 to 11 days by MTT assay; conditions: read-out: Activity
ACHN [20] = assay: Cytotoxicity against human ACHN cells assessed as cell growth at 0.1 uM after 1 to 11 days by MTT assay; conditions: read-out: Activity
BT-549 [21] = assay: Cytotoxicity against human BT549 cells assessed as cell growth at 0.1 uM after 1 to 11 days by MTT assay; conditions: read-out: Activity
RPMI-8226 [22] = assay: Cytotoxicity against human RPMI8226 cells assessed as cell growth at 1 uM after 1 to 11 days by MTT assay; conditions: read-out: Activity
SW-620 = assay: Cytotoxicity against human SW620 cells assessed as cell growth at 1 uM after 1 to 11 days by MTT assay; conditions: read-out: Activity
SK-MEL-28 = assay: Cytotoxicity against human SK-MEL-28 cells assessed as cell growth at 1 uM after 1 to 11 days by MTT assay; conditions: read-out: Activity
[23] = read-out: LC50 (the source's name)

## O=C1Nc2ncccc2/C1=C1/Nc2ccccc2/C1=N\O
OVCAR-3
  growth at 1 µM: 93%
A498 [1]
  growth at 1 µM: 85%
NCI/ADR-RES
  growth at 1 µM: 100%
UACC-62
  growth at 10 µM: 77%
OVCAR-8
  growth at 10 µM: 84%
HL-60(TB)
  growth at 10 µM: 80%
K562 [2]
  growth at 10 µM: 66%
NCI-H226 [3]
  growth at 10 µM: 53%
HCC 2998 [4]
  growth at 10 µM: 88%
KM12
  growth at 10 µM: 45%
LOX IMVI
  growth at 100 µM: 36%
UO-31
  growth at 10 µM: 62%
[5]
  growth at 10 µM: 78%
T47D [6]
  growth at 10 µM: 65%
K562 [7]
  growth at 100 µM: 39%
RPMI-8226 [8]
  growth at 100 µM: 2%
NCI-H226 [9]
  growth at 100 µM: -5%
HCT-116
  growth at 100 µM: 46%
SF-539
  growth at 100 µM: 60%
SNB-75 [10]
  growth at 100 µM: 14%
IGROV-1
  growth at 100 µM: 13%
PC-3
  growth at 100 µM: 44%
[11]
  growth at 100 µM: 4%
MDA-MB-468
  growth at 100 µM: 18%
HCC 2998 [12]
  growth at 1000 µM: 36%
HCT-15
  growth at 1000 µM: 24%
SNB-75 [13]
  GI50: 3.13 µM
  TGI: > 100 µM
SNB-75 [13]; [23]
  CC50: > 100 µM
M14
  GI50: 7.95 µM
  TGI: > 100 µM
M14; [23]
  CC50: > 100 µM
[14]
  growth at 1000 µM: 31%
BT-549 [15]
  growth at 1000 µM: 30%
T47D [16]
  growth at 1000 µM: 21%
A498 [17]
  GI50: 1.93 µM
  TGI: > 100 µM
A498 [17]; [23]
  CC50: > 100 µM
ACHN [18]
  GI50: 2.68 µM
  TGI: > 100 µM
ACHN [18]; [23]
  CC50: > 100 µM
SN12C
  GI50: 4.98 µM
  TGI: > 100 µM
SN12C; [23]
  CC50: > 100 µM
SR
  growth at 0.1 µM: 109%
SNB-75 [19]
  growth at 0.1 µM: 84%
SK-MEL-5
  growth at 0.1 µM: 104%
HOP-92
  growth at 0.1 µM: 102%
OVCAR-5
  growth at 0.1 µM: 89%
ACHN [20]
  growth at 0.1 µM: 102%
BT-549 [21]
  growth at 0.1 µM: 89%
RPMI-8226 [22]
  growth at 1 µM: 80%
SW-620
  growth at 1 µM: 94%
SK-MEL-28
  growth at 1 µM: 87%
